The text below walks through data of patent US10709720B2, “Human milk oligosaccharides for modulating inflammation” (priority 2010, dated 2020).

The structures appear in SMILES notation. ≈ marks a conversion by molar mass, not a printed value. Entries after “also recorded” stand apart in the source; their conditions may differ.

Broadly, the inhibition is the percentage by which the read-out fell short of the control.

Assay [1] relates to H1N1 influenza virus. Description: microbe, parasite or virus in culture. It is filed as cell-based.
A further assay relates to interleukin 10 (IL-10). Description: IL-10 in supernatants of HMO-pretreated peripheral blood mononuclear cells with or without RSV (Example 39). It counts as cell-based, human. The following applies: in the presence or absence of RSV. On the procedure:
Specifically, either 3′SL or 6′SL is added, at concentrations of 0.1 mg/mL, 0.2 mg/mL, or 0.5 mg/mL to fresh peripheral blood mononuclear cells and incubated at 37° C. in 5% CO2 to pretreat the cells for approximately 24 hours. LNnT is added, at concentrations of 0.1 mg/mL, 0.2 mg/mL, or 1 mg/mL to fresh peripheral blood mononuclear cells and incubated at 37° C. in 5% CO2 to pretreat the cells for approximately 24 hours. Lactose is included as a carbohydrate control. Matched endotoxin unit concentration controls are included to allow differentiation of ingredient effects from inherent low levels of endotoxin. Some variables are then incubated with RSV at a multiplicity of infection (MOI) of 0.1 for approximately 1 hour at 37° C. in 5% in CO2. Uninfected control variables are incubated with medium for approximately 1 hour at 37° C. in 5% CO2. […]
Cytokines are measured in supernatants for each variable at 24 and 48 hours to assess the effects of HMOs on the early immune response to RSV. Cytokines are measured using custom Bio-Plex Human cytokine kits from Bio-Rad. […] A positive correlation exists between RSV clinical disease severity in children (as measured by: length of hospital stay, fever, and number of days supplemental O2 is required) and serum IP-10. […]

Assay [2] has as its system interferon-inducible protein 10 (IP-10). In words: IP-10 in supernatants of HMO-pretreated, RSV-infected peripheral blood mononuclear cells (Example 39). It is filed as cell-based, human. The settings on record: for IP-10 in virus-infected variables: 24 hour pretreatment, both donors, 24 and 48 hours post-infection; for IP-10 level reached compared with uninfected controls / effectiveness at dampening virus-induced inflammation (decrease in IP-10) compared with 3′SL: RSV-infected PBMCs; for reducing inflammation caused by RSV: pretreatment for 24 hours. The protocol: (§1) Specifically, either 3′SL or 6′SL is added, at concentrations of 0.1 mg/mL, 0.2 mg/mL, or 0.5 mg/mL to fresh peripheral blood mononuclear cells and incubated at 37° C. in 5% CO2 to pretreat the cells for approximately 24 hours. LNnT is added, at concentrations of 0.1 mg/mL, 0.2 mg/mL, or 1 mg/mL to fresh peripheral blood mononuclear cells and incubated at 37° C. in 5% CO2 to pretreat the cells for approximately 24 hours. Lactose is included as a carbohydrate control. Matched endotoxin unit concentration controls are included to allow differentiation of ingredient effects from inherent low levels of endotoxin. Some variables are then incubated with RSV at a multiplicity of infection (MOI) of 0.1 for approximately 1 hour at 37° C. in 5% in CO2. Uninfected control variables are incubated with medium for approximately 1 hour at 37° C. in 5% CO2. After approximately one hour, fresh medium alone, or fresh medium containing the appropriate concentration of 3′SL, 6′SL, LNnT, lactose, or endotoxin is added to the appropriate tubes and the cells are incubated for 48 hours at 37° C. in 5% CO2. Supernatants are collected at 24 and 48 hours post-infection.
(§2) Cytokines are measured in supernatants for each variable at 24 and 48 hours to assess the effects of HMOs on the early immune response to RSV. Cytokines are measured using custom Bio-Plex Human cytokine kits from Bio-Rad. Results for interferon-inducible protein 10 (IP-10, also known as CXCL 10) are shown in FIGS. 3 and 4 for 3′SL and 6′SL, and in FIGS. 5 and 6 for LNnT. IP-10 is a CXC chemokine that attracts, binds to and activates the CXCR3 receptor on natural killer cells and memory T cells. IP-10 is expressed by monocytes and a number of other cells, and is induced by interferon. A positive correlation exists between RSV clinical disease severity in children (as measured by: length of hospital stay, fever, and number of days supplemental O2 is required) and serum IP-10. Therefore, a decrease in IP-10 signals a decrease in severity of RSV disease experienced.

Assay [3] concerns respiratory syncytial virus (RSV). Description: in vitro inhibition of viral infectivity, co-incubation of virus with HMO (Example 36). It is filed as cell-based. The following applies: virus dose about 500-1,000 units/mL; HMOs added at 1 mg/mL or 10 mg/mL. The protocol: In this Example, the effect of purified human milk oligosaccharides (HMO) on in vitro inhibition of viral infectivity is analyzed.
Samples are prepared by co-incubation of a uniform virus dose of from about 500 units/mL to about 1,000 units/mL of one of three respiratory viruses: (1) respiratory syncytial virus (RSV); (2) human parainfluenza virus (HPIV3); or (3) H1N1 influenza virus with one of the following HMOs: (1) 3′-sialyllactose (3′SL); (2) 6′-sialyllactose (6′SL); (3) 3′-fucosyllactose (3′FL); (4) 2′-fucosyllactose (2′FL); (5) lacto-N-neotetraose (LNnT); or (6) sialic acid (SA). The HMOs are added at concentrations of either 1 mg/mL or 10 mg/mL.

Assay [4] deals with monocyte-derived cytokines. In words: monocyte-derived cytokines in supernatants of HMO-treated peripheral blood mononuclear cells (Example 39). It is filed as cell-based, human. On the procedure:
as §1, §2

Assay [5] concerns H1N1 influenza virus. Description: organism not typed. The settings on record: HMO at 10 mg/mL, MDCK cells, FIG. 1. It counts as cell-based.
The subject of assay [6] is human parainfluenza virus (HPIV3). In words: microbe, parasite or virus in culture. It is filed as cell-based. The settings on record: virus dose about 500-1,000 units/mL, HMOs added at 1 mg/mL or 10 mg/mL.
Another assay concerns Interleukin 8 (IL-8). In words: IL-8 in supernatants of PBMCs treated with 3′SL and/or 6′SL with or without RSV (Example 40). It counts as cell-based, human. The following applies: in the presence of RSV (MOI 0.1); individual 0.1-0.5 mg/mL, combinations 0.2-1.0 mg/mL total; FIG. 11. On the procedure:
In this example, the combination of 3′SL and 6′SL to reduce the inflammatory cytokine IL-8 in vitro is analyzed.
Specifically, 3′SL and 6′SL are added individually at concentrations of 0.1 mg/mL, 0.2 mg/mL, or 0.5 mg/mL or in combination (Combo 1=1 part 3′SL to 1 part 6′SL; Combo 2=1 part 3′SL to 2 parts 6′SL), at total concentrations of 0.2 mg/mL, 0.4 mg/mL, or 1.0 mg/mL to fresh peripheral blood mononuclear cells (PBMCs) and incubated at 37° C. in 5% CO2 to pretreat the cells for approximately 24 hours. Lactose is included as a carbohydrate control. Matched endotoxin unit concentration controls are included to allow differentiation of ingredient effects from inherent low levels of endotoxin. After approximately 24 hours, some variables are then incubated with RSV at a multiplicity of infection (MOI) of 0.1 for approximately 1 hour at 37° C. in 5% in CO2. Uninfected control variables are incubated with medium for approximately 1 hour at 37° C. in 5% CO2. […] Cytokines are measured in supernatants for each variable at 24 and 48 hours to assess the effects of the 3′SL and/or the 6′SL on the early immune response to RSV. Cytokines are measured using custom Bio-Plex Human cytokine kits from Bio-Rad. […]

[7] abbreviates: virus dose about 500-1,000 units/mL, HMOs added at 1 mg/mL or 10 mg/mL.
Where [8] appears, read: in the presence or absence of the virus.

`CC(=O)N[C@H]1[C@H](O[C@H]2[C@@H](O)[C@@H](CO)O[C@@H](O[C@H]3[C@H](O)[C@@H](O)C(O)O[C@@H]3CO)[C@@H]2O)O[C@H](CO)[C@@H](O[C@@H]2O[C@H](CO)[C@H](O)[C@H](O)[C@H]2O)[C@@H]1O` (mixture of isomers) [LNnT, lacto-N-neotetraose]: the “IC50 (mg HMO/mL) H1N1 Influenza” value in the assay on H1N1 influenza virus [1] (setting [7]) was greater than 10 mg HMO/mL. Besides, in the assay with interleukin 10 (IL-10), the IL-10 concentration entry is “increases IL-10 concentration in a dose-dependent manner”. The “IP-10 in virus-infected variables” value in assay [2] (RSV MOI 0.1) is on record as “clearly downregulates IP-10”. Further, in assay [2], the “IP-10 level reached compared with uninfected controls” value is listed as “reduce IP-10 to levels found in uninfected controls”, the “effectiveness at dampening virus-induced inflammation (decrease in IP-10) compared with 3′SL” value was “more effective than 3′SL” and the “reducing inflammation caused by RSV” value is given as “effective in reducing inflammation caused by RSV”. Moreover, in assay [3], the “IC50 (mg HMO/mL) RSV” value is greater than 10 mg HMO/mL. Besides, the “immunomodulation: induces and/or modifies production of monocyte-derived cytokines” value (shortened to “immunomodulation … of monocyte-derived cytokines”) in assay [4] (setting [8]) is given as “immunomodulatory”.
For the compound `CC(=O)N[C@H]1[C@H]([C@H](O)[C@H](O)CO)OC(O)(C(=O)O)C[C@@H]1O` (some centres unmarked) [SA, sialic acid], in the assay on H1N1 influenza virus [5] (read-out: inhibition of virus infectivity), the inhibition at 10000 µg/mL was greater than 90%. The IC50 in the assay on H1N1 influenza virus [1] (Influenza A virus, H1N1, virus dose about 500-1,000 units/mL, HMOs added at 1 mg/mL or 10 mg/mL, read-out: IC50 (mg HMO/mL) H1N1 Influenza) is roughly 5000 µg/mL (≈ 16.2 mM); in assay [6] (Human respirovirus 3, read-out: IC50 (mg HMO/mL) HPIV3), roughly 2000 µg/mL (≈ 6.47 mM).
Consider `CC(=O)N[C@H]1[C@H]([C@H](O)[C@H](O)CO)O[C@@](O[C@H]2[C@@H](O)[C@@H](CO)O[C@@H](O[C@H]3[C@H](O)[C@@H](O)C(O)O[C@@H]3CO)[C@@H]2O)(C(=O)O)C[C@@H]1O` (some centres unmarked) [3′SL, 3′-sialyllactose], for which, in the assay on H1N1 influenza virus [1] (HMO at 1 mg/mL), the “anti-viral activity against H1N1 influenza virus” value is listed as “inhibited”. Moreover, the “IC50 (mg HMO/mL) H1N1 Influenza” value in the assay with H1N1 influenza virus [1] (setting [7]) is listed as roughly 5 mg HMO/mL. In the assay with Interleukin 8 (IL-8), the “IL-8 concentration with increasing HMO concentration” value is reported as “increase IL-8”. The “RSV-induced IP-10, Donor B” value in assay [2] (RSV MOI 0.1, 0.1-0.5 mg/mL, Donor B) is “not effective”. Besides, the “RSV-induced IP-10, Donor E” value in assay [2] (RSV MOI 0.1, 0.1-0.5 mg/mL, Donor E) is reported as “downregulates RSV-induced IP-10”. Moreover, the “IP-10 in virus-infected variables” value in assay [2] (RSV MOI 0.1) is listed as “dampen RSV-induced IP-10”. For the same compound, the “reducing inflammation caused by RSV” value in assay [2] is listed as “effective in reducing inflammation caused by RSV”. For the same compound, the “IC50 (mg HMO/mL) RSV” value in assay [3] was greater than 10 mg HMO/mL. Also, in assay [6], the “IC50 (mg HMO/mL) HPIV3” value is listed as greater than 10 mg HMO/mL. Moreover, the “immunomodulation … of monocyte-derived cytokines” value in assay [4] (setting [8]) is recorded as “immunomodulatory”.
Regarding `CC(=O)N[C@H]1[C@H]([C@H](O)[C@H](O)CO)O[C@@](OC[C@H]2O[C@@H](O[C@H]3[C@H](O)[C@@H](O)[C@H](O)O[C@@H]3CO)[C@H](O)[C@@H](O)[C@H]2O)(C(=O)O)C[C@@H]1O` [6′SL, 6′-sialyllactose], in the assay on H1N1 influenza virus [5], the “inhibition of virus infectivity” value is “approximately 60%”. Moreover, the “IC50 (mg HMO/mL) H1N1 Influenza” value with H1N1 influenza virus [1] (setting [7]) was roughly 10 mg HMO/mL. In the assay on interleukin 10 (IL-10), the IL-10 concentration entry is listed as “increases interleukin 10 (IL-10) concentration in a dose-dependent manner”. Further, in the assay on Interleukin 8 (IL-8), the “IL-8 concentration with increasing HMO concentration” value is listed as “increase IL-8”. For the same compound, the “IP-10 in virus-infected variables” value in assay [2] (RSV MOI 0.1) is “clearly downregulates IP-10”. Also, in assay [2], the “IP-10 level reached compared with uninfected controls” value is reported as “reduce IP-10 to levels found in uninfected controls”, the “effectiveness at dampening virus-induced inflammation (decrease in IP-10) compared with 3′SL” value was “more effective at downregulation of IP-10; also recorded: more effective than 3′SL” and the “reducing inflammation caused by RSV” value is recorded as “effective in reducing inflammation caused by RSV”. Besides, in assay [3], the “IC50 (mg HMO/mL) RSV” value is greater than 10 mg HMO/mL. For the same compound, the “IC50 (mg HMO/mL) HPIV3” value in assay [6] is greater than 10 mg HMO/mL. Moreover, the “immunomodulation … of monocyte-derived cytokines” value in assay [4] (in the absence of the virus) is reported as “immunomodulatory”.
